Test results as given in ChEMBL document CHEMBL1136266, “beta-Homolysine oligomers: a new class of Trojan carriers” (Bioorg Med Chem Lett, 2003).

Tests used:
Format in all cases: functional, cell-based
Details in all cases: Homo sapiens
DU-145 [1] = assay: Cellular uptake of compound into DU145 tumor cells by laser scanning cytometry at a concentration of 1 uM
HCT-15 [2] = assay: Cellular uptake of compound into HCT15 tumor cells by laser scanning cytometry at a concentration of 0.1 uM
DU-145 [3] = assay: Cellular uptake of compound into DU145 tumor cells by laser scanning cytometry at a concentration of 10 uM
HCT-15 [4] = assay: Cellular uptake of compound into HCT15 tumor cells by laser scanning cytometry at a concentration of 10 uM
HCT-15 [5] = assay: Cellular uptake of compound into HCT15 tumor cells by laser scanning cytometry at a concentration of 1 uM
DU-145 [6] = assay: Cellular uptake of compound into DU145 tumor cells by laser scanning cytometry at a concentration of 0.1 uM

Row | SMILES | Uptake (DU-145 [1]) | Uptake (HCT-15 [2]) | Uptake (DU-145 [3]) | Uptake (HCT-15 [4]) | Uptake (HCT-15 [5]) | Uptake (DU-145 [6])
1 | NCCCCC(CC(N)=O)NC(=O)CC(CCCCN)NC(=O)CC(CCCCN)NC(=O)CC(CCCCN)NC(=O)CC(CCCCN)NC(=O)CC(CCCCN)NC(=O)CC(CCCCN)NC(=O)COCCOCCNC(=O)c1ccccc1C1c2ccc(O)cc2Oc2cc(O)ccc21 (stereo not given) | 85.8% | 99.9% | 98.8% | 99.8% | 99.8% | 92.5%
2 | NCCCCC(CC(N)=O)NC(=O)CC(CCCCN)NC(=O)CC(CCCCN)NC(=O)CC(CCCCN)NC(=O)CC(CCCCN)NC(=O)CC(CCCCN)NC(=O)COCCOCCNC(=O)c1ccccc1C1c2ccc(O)cc2Oc2cc(O)ccc21 (stereo not given) | 69.5% | 99.9% | 94.9% | 99.6% | 99.7% | 40.4%
3 | NCCCCC(CC(N)=O)NC(=O)CC(CCCCN)NC(=O)CC(CCCCN)NC(=O)CC(CCCCN)NC(=O)CC(CCCCN)NC(=O)COCCOCCNC(=O)c1ccccc1C1c2ccc(O)cc2Oc2cc(O)ccc21 (stereo not given) | 76.5% | 99.8% | 97.8% | 99.8% | 99.6% | 71.9%
4 | O=C1OC2(c3ccc(O)cc3Oc3cc(O)ccc32)c2ccccc21 | 0.8% | 0.3% | 0.3% | 0.7% | 1.1% | 0.1%
5 | NCCCCC(CC(N)=O)NC(=O)CC(CCCCN)NC(=O)CC(CCCCN)NC(=O)CC(CCCCN)NC(=O)CC(CCCCN)NC(=O)CC(CCCCN)NC(=O)CC(CCCCN)NC(=O)CC(CCCCN)NC(=O)COCCOCCNC(=O)c1ccccc1C1c2ccc(O)cc2Oc2cc(O)ccc21 (stereo not given) | 98.9% | 99.5% | 89.5% | 99.9% | 99.9% | 98.5%
